Measurements as given in patent US20070275962A1, “Heterobicyclic Compounds as Pharmaceutically Active Agents” (GPC BIOTECH AG, priority 2003, published 2007).

How the values were obtained:
Format in all cases: biochemical
CDK1/CycB act.GST-HIS = CDK1/CycB act.GST-HIS (Homo sapiens, UniProt P06493); assay: General kinase assay: CDK1/CycB; settings: concentration 10 μM; read-out: Inhibitory effect on Target CDK1/CycB act.GST-HIS
Method: (§1) General Assay Protocol for all Kinases [[[…]]] [[[…]]] Reaction Buffer: Final Assay Concentrations: [[[…]]] Pipetting Sequence: • 1) Add 8 μl 50 μM MBP in Reaction Buffer to each well of Assay Plate • 2) Add 10 μl 500 mM EDTA in H2O to C- wells • 3) Add 8 μl 62.5 μCi/ml Adenosine 5'-[γ-^33P]triphosphate+5 μM ATP in Reaction Buffer to each well • 4) Add 8 μl 5 fold concentrated inhibitor in 5% DMSO in Reaction Buffer to each well except to C- and C+ wells • 5) Add 8 μl 5% DMSO in Reaction Buffer to C- and C+ wells • 6) Add 8 μl 5 fold concentrated kinase in Reaction Buffer to each well • 7) Incubate 1 hr at room temperature • 8) Add 10 μl 50 mM EDTA in H2O to each well except to C- wells • 9) Prepare MAPH plates by adding 200 μl 0.75% H3PO4 to each well • 10) Exhaust 0.75% H3PO4 using Millipore vacuum station • 11) Add 60 μl 0.75% H3PO4 to each well of MAPH Filter Plate • 12) Transfer 30 μl sample per well from Assay Plate to corresponding well of MAPH Filter Plate • 13) Incubate 30 min at room temperature • 14) Wash each well of MAPH Filter Plates 3× with 200 μl 0.75% H3PO4 using Millipore vacuum station • 15) Add 20 μl Szintilation Liquid to each well of MAPH Filter Plate • 16) Seal MAPH Filter Plate • 17) Store MAPH Filter Plate 30 min in darkness • 18) Quantify radioactivity

PDGFRbeta GST = biological target: T1, PDGFRbeta GST (Homo sapiens, UniProt P09619); assay: General kinase assay: PDGFRbeta; settings: concentration 10 μM; read-out: Inhibitory effect on Target PDGFRbeta GST
T1 construct: GST
Method: as §1

Kit human GST = biological target: T2, Kit human GST (Homo sapiens, UniProt P10721); assay: General kinase assay: Kit; settings: concentration 10 μM; read-out: Inhibitory effect on Target Kit human GST
T2 construct: GST
Method: as §1

SRPK1 GST = biological target: T3, SRPK1 GST (Homo sapiens, UniProt Q96SB4); assay: General kinase assay: SRPK1; settings: concentration 10 μM; read-out: Inhibitory effect on Target SRPK1 GST
T3 construct: GST
Method: as §1

Measured: inhibition at 10 µM

T3 sequence (Q96SB4 whole entry): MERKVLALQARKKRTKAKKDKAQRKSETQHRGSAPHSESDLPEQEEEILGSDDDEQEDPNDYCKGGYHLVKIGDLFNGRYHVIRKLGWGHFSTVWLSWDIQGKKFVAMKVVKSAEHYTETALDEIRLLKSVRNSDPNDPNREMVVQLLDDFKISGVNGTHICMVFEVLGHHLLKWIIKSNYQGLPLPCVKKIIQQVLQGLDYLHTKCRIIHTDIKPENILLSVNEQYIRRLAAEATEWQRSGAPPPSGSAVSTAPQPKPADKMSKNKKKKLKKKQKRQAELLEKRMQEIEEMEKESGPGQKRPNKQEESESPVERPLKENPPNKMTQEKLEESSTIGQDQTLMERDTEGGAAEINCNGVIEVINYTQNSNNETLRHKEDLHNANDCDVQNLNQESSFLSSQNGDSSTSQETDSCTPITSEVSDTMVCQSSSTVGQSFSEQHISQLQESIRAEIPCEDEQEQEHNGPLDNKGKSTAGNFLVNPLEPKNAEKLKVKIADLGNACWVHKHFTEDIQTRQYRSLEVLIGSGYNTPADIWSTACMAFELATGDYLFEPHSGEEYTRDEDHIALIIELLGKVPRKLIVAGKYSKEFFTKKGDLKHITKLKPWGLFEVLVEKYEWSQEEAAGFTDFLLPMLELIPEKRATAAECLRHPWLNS
Sequence of CDK1/CycB act.GST-HIS (P06493 whole entry, species assumed): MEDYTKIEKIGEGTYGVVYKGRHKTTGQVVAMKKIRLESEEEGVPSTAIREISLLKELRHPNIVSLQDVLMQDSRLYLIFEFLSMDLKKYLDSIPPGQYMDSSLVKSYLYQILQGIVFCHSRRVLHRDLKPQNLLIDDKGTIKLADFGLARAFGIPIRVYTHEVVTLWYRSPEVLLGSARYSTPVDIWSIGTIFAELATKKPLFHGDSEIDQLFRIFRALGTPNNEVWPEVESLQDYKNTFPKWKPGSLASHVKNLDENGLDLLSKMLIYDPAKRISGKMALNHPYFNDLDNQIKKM
Sequence of CDK1/CycB act.GST-HIS (P14635 whole entry partner, species assumed): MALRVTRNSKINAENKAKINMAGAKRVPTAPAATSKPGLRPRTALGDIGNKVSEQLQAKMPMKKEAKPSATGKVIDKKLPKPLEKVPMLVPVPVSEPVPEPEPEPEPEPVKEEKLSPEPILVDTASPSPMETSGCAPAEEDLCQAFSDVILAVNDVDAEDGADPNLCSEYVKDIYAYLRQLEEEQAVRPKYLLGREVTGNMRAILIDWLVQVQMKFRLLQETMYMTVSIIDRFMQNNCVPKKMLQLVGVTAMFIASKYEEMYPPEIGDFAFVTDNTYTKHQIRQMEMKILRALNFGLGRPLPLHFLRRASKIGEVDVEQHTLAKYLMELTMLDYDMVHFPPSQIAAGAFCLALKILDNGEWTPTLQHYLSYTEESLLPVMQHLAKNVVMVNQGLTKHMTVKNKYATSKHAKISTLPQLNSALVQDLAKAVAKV
T2 sequence (P10721 26-976): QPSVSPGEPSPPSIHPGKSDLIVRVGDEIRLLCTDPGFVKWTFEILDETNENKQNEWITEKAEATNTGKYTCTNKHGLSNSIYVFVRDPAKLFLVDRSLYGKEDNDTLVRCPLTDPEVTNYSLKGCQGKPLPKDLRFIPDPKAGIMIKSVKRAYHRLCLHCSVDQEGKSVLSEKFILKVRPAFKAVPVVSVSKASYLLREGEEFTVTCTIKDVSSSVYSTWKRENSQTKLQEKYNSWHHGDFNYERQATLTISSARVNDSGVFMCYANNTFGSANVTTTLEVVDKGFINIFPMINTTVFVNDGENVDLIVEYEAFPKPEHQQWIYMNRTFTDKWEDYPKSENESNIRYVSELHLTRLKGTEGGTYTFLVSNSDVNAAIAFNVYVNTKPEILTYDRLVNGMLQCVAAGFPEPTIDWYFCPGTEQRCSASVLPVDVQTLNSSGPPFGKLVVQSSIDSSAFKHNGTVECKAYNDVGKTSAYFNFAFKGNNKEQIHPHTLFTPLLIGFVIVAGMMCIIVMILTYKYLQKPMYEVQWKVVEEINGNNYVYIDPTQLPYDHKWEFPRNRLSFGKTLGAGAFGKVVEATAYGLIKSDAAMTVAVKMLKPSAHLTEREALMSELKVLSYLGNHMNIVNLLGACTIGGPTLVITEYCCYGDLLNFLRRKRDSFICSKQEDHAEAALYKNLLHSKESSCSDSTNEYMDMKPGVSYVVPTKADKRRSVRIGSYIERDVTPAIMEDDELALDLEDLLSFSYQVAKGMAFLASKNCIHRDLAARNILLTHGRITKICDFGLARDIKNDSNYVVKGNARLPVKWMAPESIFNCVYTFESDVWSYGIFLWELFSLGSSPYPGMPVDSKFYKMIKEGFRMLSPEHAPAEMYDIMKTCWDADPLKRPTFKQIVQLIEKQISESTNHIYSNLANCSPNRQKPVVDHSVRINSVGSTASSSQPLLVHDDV
T1 sequence (P09619 33-1106): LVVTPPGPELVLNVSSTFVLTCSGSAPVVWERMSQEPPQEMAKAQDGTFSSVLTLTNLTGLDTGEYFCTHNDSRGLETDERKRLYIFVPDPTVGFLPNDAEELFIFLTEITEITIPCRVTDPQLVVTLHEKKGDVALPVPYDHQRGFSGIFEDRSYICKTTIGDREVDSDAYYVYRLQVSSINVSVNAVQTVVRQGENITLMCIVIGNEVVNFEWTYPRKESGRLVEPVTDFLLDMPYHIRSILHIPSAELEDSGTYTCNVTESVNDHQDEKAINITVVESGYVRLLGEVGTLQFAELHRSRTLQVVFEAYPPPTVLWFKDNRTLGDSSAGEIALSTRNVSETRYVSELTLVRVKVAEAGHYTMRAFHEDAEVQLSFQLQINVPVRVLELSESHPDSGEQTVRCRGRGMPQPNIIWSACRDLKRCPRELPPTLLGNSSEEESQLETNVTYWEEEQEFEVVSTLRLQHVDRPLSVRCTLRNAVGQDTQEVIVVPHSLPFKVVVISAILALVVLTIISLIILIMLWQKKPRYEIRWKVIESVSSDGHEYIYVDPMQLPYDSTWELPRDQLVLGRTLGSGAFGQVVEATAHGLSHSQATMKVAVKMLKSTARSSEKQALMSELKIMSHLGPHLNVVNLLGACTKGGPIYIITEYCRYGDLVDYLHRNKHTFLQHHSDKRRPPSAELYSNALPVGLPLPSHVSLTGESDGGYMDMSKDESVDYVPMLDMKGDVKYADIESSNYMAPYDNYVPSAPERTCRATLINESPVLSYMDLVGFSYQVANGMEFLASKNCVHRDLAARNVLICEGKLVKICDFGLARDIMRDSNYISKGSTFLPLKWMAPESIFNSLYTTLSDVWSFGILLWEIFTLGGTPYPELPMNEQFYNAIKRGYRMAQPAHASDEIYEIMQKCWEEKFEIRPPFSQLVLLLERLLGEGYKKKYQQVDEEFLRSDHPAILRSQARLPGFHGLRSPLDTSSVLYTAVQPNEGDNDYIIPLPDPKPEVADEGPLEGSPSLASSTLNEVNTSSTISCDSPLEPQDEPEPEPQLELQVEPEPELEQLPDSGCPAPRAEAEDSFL

NC(=O)c1c(NC(=O)Nc2ccc(F)cc2)sc2c1CCOC2 [Compound B13, 2-[3-(4-Fluoro-phenyl)-ureido]-4,7-dihydro-5H-thieno[2,3-c]pyran-3-carboxylic acid amide]
> 50%: all assays above
